Assay results published in PubChem BioAssay (NCI).
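Where inhibition never reached the appropriate level, the endpoint shown equals the highest concentration tested. Otherwise, values were interpolated linearly from a five-concentration, 48-hour dose response in 96-well plates. TGI is the concentration that stops growth completely.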

Key:
Test in all cases: inhibition of tumour cell growth, NCI panel, 48 h
OVCAR-8 ovarian = tested on: OVCAR-8 ovarian
RXF 393 renal = tested on: RXF 393 renal
TK-10 renal = tested on: TK-10 renal
A498 renal = tested on: A498 renal
HOP-62 NSCLC = tested on: HOP-62 NSCLC
HOP-92 NSCLC = tested on: HOP-92 NSCLC
HCT-116 colon = tested on: HCT-116 colon
KM12 colon = tested on: KM12 colon
HT29 colon = tested on: HT29 colon
OVCAR-4 ovarian = tested on: OVCAR-4 ovarian
MOLT-4 leukemia = tested on: MOLT-4 leukemia
A549 NSCLC = tested on: A549 NSCLC
HS 578T breast = tested on: HS 578T breast
NCI-H460 lung = tested on: NCI-H460 lung
MCF7 breast = tested on: MCF7 breast
CCRF-CEM leukemia = tested on: CCRF-CEM leukemia
UO-31 renal = tested on: UO-31 renal
HCT-15 colon = tested on: HCT-15 colon
CAKI-1 renal = tested on: CAKI-1 renal
K-562 leukemia = tested on: K-562 leukemia
SN12C renal = tested on: SN12C renal
SK-OV-3 ovarian = tested on: SK-OV-3 ovarian
BT-549 breast = tested on: BT-549 breast
786-0 renal = tested on: 786-0 renal
IGROV1 ovarian = tested on: IGROV1 ovarian
RPMI-8226 leukemia = tested on: RPMI-8226 leukemia
PC-3 prostate = tested on: PC-3 prostate
MDA-N = tested on: MDA-N
SK-MEL-5 melanoma = tested on: SK-MEL-5 melanoma
SF-539 CNS = tested on: SF-539 CNS
DU-145 prostate = tested on: DU-145 prostate
U251 CNS = tested on: U251 CNS
ACHN renal = tested on: ACHN renal
SW-620 colon = tested on: SW-620 colon
COLO 205 colon = tested on: COLO 205 colon
SNB-75 CNS = tested on: SNB-75 CNS
UACC-257 melanoma = tested on: UACC-257 melanoma
SF-268 CNS = tested on: SF-268 CNS
MDA-MB-435 = tested on: MDA-MB-435
LOX IMVI melanoma = tested on: LOX IMVI melanoma
SF-295 CNS = tested on: SF-295 CNS
NCI-H226 lung = tested on: NCI-H226 lung
MALME-3M melanoma = tested on: MALME-3M melanoma
HCC-2998 colon = tested on: HCC-2998 colon
M14 melanoma = tested on: M14 melanoma
T-47D breast = tested on: T-47D breast
HL-60(TB) leukemia = tested on: HL-60(TB) leukemia
OVCAR-5 ovarian = tested on: OVCAR-5 ovarian
UACC-62 melanoma = tested on: UACC-62 melanoma
EKVX NSCLC = tested on: EKVX NSCLC
OVCAR-3 ovarian = tested on: OVCAR-3 ovarian
MDA-MB-231 breast = tested on: MDA-MB-231 breast
SK-MEL-2 melanoma = tested on: SK-MEL-2 melanoma
SNB-19 CNS = tested on: SNB-19 CNS
NCI-H522 lung = tested on: NCI-H522 lung
SK-MEL-28 melanoma = tested on: SK-MEL-28 melanoma
NCI/ADR-RES ovarian = tested on: NCI/ADR-RES ovarian
NCI-H23 lung = tested on: NCI-H23 lung

Measured: TGI

CC1CCC2C(C(=O)O[C@H]3C4C=CO[C@@H](OC5OC(CO)C(O)C(O)C5O)C4[C@@]4(CO)O[C@@H]34)=CO[C@@H](OC3OC(CO)C(O)C(O)C3O)C12 (stereo partly drawn)
> 10 µM: OVCAR-8 ovarian | RXF 393 renal | TK-10 renal | A498 renal | HOP-62 NSCLC | HOP-92 NSCLC | HCT-116 colon | KM12 colon | HT29 colon | OVCAR-4 ovarian | MOLT-4 leukemia | A549 NSCLC | HS 578T breast | NCI-H460 lung | MCF7 breast | CCRF-CEM leukemia | UO-31 renal | HCT-15 colon | CAKI-1 renal | K-562 leukemia | SN12C renal | SK-OV-3 ovarian | BT-549 breast | 786-0 renal | IGROV1 ovarian | RPMI-8226 leukemia | PC-3 prostate | MDA-N | SK-MEL-5 melanoma | SF-539 CNS | DU-145 prostate | U251 CNS | ACHN renal | SW-620 colon | COLO 205 colon | SNB-75 CNS | UACC-257 melanoma | SF-268 CNS | MDA-MB-435 | LOX IMVI melanoma | SF-295 CNS | NCI-H226 lung | MALME-3M melanoma | HCC-2998 colon | M14 melanoma | T-47D breast | HL-60(TB) leukemia | OVCAR-5 ovarian | UACC-62 melanoma | EKVX NSCLC | OVCAR-3 ovarian | MDA-MB-231 breast | SK-MEL-2 melanoma | SNB-19 CNS | NCI-H522 lung | SK-MEL-28 melanoma | NCI/ADR-RES ovarian | NCI-H23 lung
